Data: patent US20080299140A1, “Immunogenic Composition and Peptide Sequences for Prevention and Treatment of an Hsv Condition” (priority 2002, published 2008)
Like-named read-outs stand apart in the source and are kept apart here.

Assays:
[1] = target: T1, DR7=HLA-DR(α1*0101,α1*0701) (Homo sapiens, UniProt P01903+P01911, A100R/A102G/A103Q/D57E/D86V/E43K/F76Y/K127E/L162R/M171V/P40G/Q125H/Q99D/R33Q/R42Y/R54Q/S133A/S66F/T210M/V115G/Y107V/Y59L/Y89S); assay: HLA-DR specific binding assay, DR7
T1 construct: endogenous in cells; host or cells: EBV homozygous human B cell line

[2] = target: T2, DRB4=HLA-DR(α1*0101,α4*0101) (Homo sapiens, UniProt P01903+P13762, G164S); assay: HLA-DR specific binding assay, DRB4 (DR53)
T2 construct: endogenous in cells

[3] = target: T3, DR15=HLA-DR(α1*0101,α1*1501) (Homo sapiens, UniProt P01903+P01911); assay: HLA-DR specific binding assay, DR15
T3 construct: endogenous in cells; host or cells: EBV homozygous human B cell line

[4] = target: T4, DRB5=HLA-DR(α1*0101,α5*0101) (Homo sapiens, UniProt P01903+Q30154); assay: biochemical; type: binding; details: Table V; […]; read-out: IC50 DRB5
T4 construct: endogenous in cells; host or cells: EBV homozygous human B cell line
T4 sequence (Q30154 30-266, other chains not shown): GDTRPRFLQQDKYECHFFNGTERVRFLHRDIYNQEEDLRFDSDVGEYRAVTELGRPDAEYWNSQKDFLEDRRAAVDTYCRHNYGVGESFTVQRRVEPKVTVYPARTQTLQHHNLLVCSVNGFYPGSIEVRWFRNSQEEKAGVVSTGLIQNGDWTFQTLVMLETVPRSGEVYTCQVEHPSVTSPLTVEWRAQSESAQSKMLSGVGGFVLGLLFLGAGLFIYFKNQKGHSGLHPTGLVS

[5] = target: T5, DR13=HLA-DR(α1*0101,α1*1301) (Homo sapiens, UniProt P01903+P01911, A100E/A169T/K41T/L162R/M171V/P40S/Q125H/Q178H/Q39Y/Q99D/R42S/S66N/T262R/W38E/Y61H); assay: HLA-DR specific binding assay, DR13
T5 construct: endogenous in cells; host or cells: 0206AD (EBV homozygous B cell line)

[6] = target: T6, DRB3=HLA-DR(α1*0101,α3*0101) (Homo sapiens, UniProt P01903+P79483); assay: HLA-DR specific binding assay, DRB3 (DR52)
T6 construct: endogenous in cells; host or cells: STEILIN or 0206AD (both typed DRB3*0101)
T6 sequence (P79483 30-266, other chains not shown): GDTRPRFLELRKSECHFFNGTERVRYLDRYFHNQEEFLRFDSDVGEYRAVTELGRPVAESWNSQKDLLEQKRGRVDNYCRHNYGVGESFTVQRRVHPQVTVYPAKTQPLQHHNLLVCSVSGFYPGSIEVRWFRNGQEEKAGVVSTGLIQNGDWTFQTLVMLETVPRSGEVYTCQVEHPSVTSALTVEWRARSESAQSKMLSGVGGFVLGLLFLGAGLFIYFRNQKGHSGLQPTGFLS

[7] = target: T7, DR11=HLA-DR(α1*0101,α1*1101) (Homo sapiens, UniProt P01903+P01911, A100R/A169T/A87E/I96F/K41T/L162R/M171V/P40S/Q125H/Q178H/Q39Y/Q99D/R42S/S66Y/T262R/V115G/W38E); assay: biochemical; type: binding
T7 construct: endogenous in cells; host or cells: SWEIG (EBV homozygous B cell line)

[8] = test system: lymphocytes obtained from HSV-1 infected H-2^d mice; assay: HSV-primed T-cell responses to gD peptides in HSV-1 infected mice; type: cell-based
Description: Twelve days after the second immunization, spleen and inguinal lymph nodes (LN) were removed and placed into ice-cold serum free HL-1 medium supplemented with 15 mM HEPES, 5×10^−5 M β-mercaptoethanol, 2 mM glutamine, 50 U of penicillin and 50 μg of streptomycin (GIBCO-BRL, Grand Island, N.Y.) (complete medium, CM). The cells were cultured in 96-well plates at 5×10^5 cells/well in CM, with recall or control peptide at 30, 10, 3, 1, or 0.3 μg/ml concentration, as previously described in (BenMohamed et al., 2000 and 2002). The cell suspensions were incubated for 72 h at 37° C. in 5% CO2. One μCi (micro-curie) of (^3H)-thymidine (Dupont MEN, Boston, Mass.) was added to each well during the last 16 h of culture. The incorporated radioactivity was determined by harvesting cells onto glass fiber filters and counted on a Matrix 96 direct ionization-counter (Packard Instruments, Meriden, Conn.). Results were expressed as the mean cpm of cell-associated (^3H)-thymidine recovered from wells containing Ag minus the mean cpm of cell-associated (^3H)-thymidine recovered from wells without Ag (A cpm) (average of triplicate). The Stimulation Index (SI) was calculated as the mean cpm of cell-associated (^3H)-thymidine recovered from wells containing Ag divided by the mean cpm of cell-associated (^3H)-thymidine recovered from wells without Ag (average of triplicate). For all experiments the irrelevant control peptide gB141-165 and the T-cell mitogen Concanavalin A (ConA) (Sigma, St. Louis, Mo.) were used as negative and positive controls, respectively. Proliferation results were confirmed by repeating each experiment twice. A T-cell proliferative response was considered positive when A cpm>1000 and SI>2.
To define the fine specificity of broadly reactive T-cells associated with viral immunity and to explore immunodominance in the context of HSV infection, proliferation of lymphocytes obtained from twenty HSV-1 infected H-2^d mice were evaluated using the twelve gD peptides as Ag (FIG. 6). […] Despite a difference between individual mice, a unique array of T-cell responses was identified for each of the twenty infected mice analyzed.

[9] = test system: HLA-DR and HLA-DP molecules; assay: MHC class II binding assays, panel of twelve HLA class II molecules (number of alleles bound); details: number of the twelve class II MHC alleles bound; title: Threshold 600 nM/5 alleles
[10] = target: T8, DP401=HLA-DP(α1*0101,α1*0401) (Homo sapiens, UniProt P04440+P20036); assay: biochemical; type: binding
T8 sequence (P20036 32-260 limits assumed): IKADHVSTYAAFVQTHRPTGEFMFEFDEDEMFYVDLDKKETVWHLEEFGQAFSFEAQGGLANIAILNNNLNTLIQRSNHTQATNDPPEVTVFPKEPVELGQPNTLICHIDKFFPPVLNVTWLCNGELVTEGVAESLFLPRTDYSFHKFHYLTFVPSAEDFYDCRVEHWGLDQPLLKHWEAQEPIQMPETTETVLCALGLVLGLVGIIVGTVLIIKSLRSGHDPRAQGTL
T8 sequence (P04440 30-258): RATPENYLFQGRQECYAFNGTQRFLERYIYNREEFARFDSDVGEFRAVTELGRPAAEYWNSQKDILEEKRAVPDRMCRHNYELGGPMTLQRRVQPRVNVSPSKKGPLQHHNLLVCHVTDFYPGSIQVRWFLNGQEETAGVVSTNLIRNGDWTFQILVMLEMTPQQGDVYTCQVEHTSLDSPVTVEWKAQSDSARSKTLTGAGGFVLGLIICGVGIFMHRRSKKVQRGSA

[11] = target: T9, DR3=HLA-DR(α1*0101,α1*0301) (Homo sapiens, UniProt P01903+P01911, A100K/A102G/A103R/A169T/F55Y/I96L/K41T/L162R/M171V/P40S/Q125H/Q178H/Q39Y/R42S/S66N/T106N/T262R/W38E/Y61H); assay: HLA-DR specific binding assay, DR3
T9 construct: endogenous in cells; host or cells: STEILIN (EBV homozygous B cell line)

## CC[C@H](C)[C@H](NC(=O)[C@H](CO)NC(=O)[C@@H]1CCCN1C(=O)[C@@H](NC(=O)[C@H](Cc1c[nH]cn1)NC(=O)[C@H](Cc1c[nH]c2ccccc12)NC(=O)[C@H](CC(N)=O)NC(=O)[C@@H]1CCCN1C(=O)[C@@H]1CCCN1C(=O)[C@@H](NC(=O)[C@H](CCC(N)=O)NC(=O)[C@@H]1CCCN1C(=O)[C@H](C)N)[C@@H](C)CC)[C@@H](C)CC)C(=O)N[C@@H](CCC(N)=O)C(=O)N[C@@H](CC(=O)O)C(=O)N[C@@H](C)C(=O)N[C@@H](C)C(=O)N[C@H](C(=O)N1CCC[C@H]1C(=O)N[C@@H](Cc1ccc(O)cc1)C(=O)N[C@@H](Cc1c[nH]cn1)C(=O)N1CCC[C@H]1C(=O)N1CCC[C@H]1C(=O)N[C@@H](C)C(=O)N[C@H](C(=O)N1CCC[C@H]1C(=O)N[C@@H](CC(N)=O)C(=O)N[C@@H](CC(N)=O)C(=O)N[C@@H](CCSC)C(=O)NCC(=O)N[C@@H](CC(C)C)C(=O)O)[C@@H](C)O)[C@@H](C)O [HSV 35]
[1]
  IC50: 2450 nM
[2]
  IC50: 3.26 µM
[3]
  IC50: 6.79 µM
[4]
  IC50: 4.5 µM
[5]
  IC50: > 100 µM
[5]; read-out: IC50, DR13, Class II MHC allele DR13
  IC50: > 100 µM
[6]; IC50, DRD3, Class II MHC allele DRD3 (so in the source)
  IC50: 5 µM
[6]; IC50 DRB3, Table V, […]
  IC50: 5 µM
[7]; IC50, DR11
  IC50: 25 µM
[7]; IC50 DR11
  IC50: 25 µM
[8]; HSV infected H-2^d mice (FIG. 6)
  T-cell responses recalled in HSV infected mice: either low or no response
[8]; HSV-1 infected H-2^d mice
  immunodominance of epitopes in HSV-primed T-cell responses: immunodominant epitopes
[9]
  Range: 1
[10]; Class II MHC allele DP401
  IC50: > 100 µM
[10]; Table V, […]
  IC50: > 100 µM
[11]; IC50, DR3, Class II MHC allele DR3
  IC50: 19.5 µM
[11]; IC50 DR3, Table V, […]
  IC50: 19.5 µM
